Measured values published in patent publication US20200087258A1, “INHIBITOR OF CITRATE TRANSPORTER AND THEIR USE IN THERAPY” (Eternygen GmbH, priority 2017, published 2020).

Key:
INDY [1] = target: T1, INDY (Homo sapiens, UniProt Q86YT5); assay: 14C-citrate uptake in HepG2 cells endogenously expressing INDY (NaCT); type: cell-based; settings: endogenous INDY
In short: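 HepG2 cells, which express INDY endogenously, were preincubated with compound for 5 min at 37 °C in pH 6.5 Na+ citrate uptake buffer. 14C-citrate ([…]) was then added for 90 min at 37 °C. After washing and NaOH lysis, uptake was measured by scintillation counting, with 5 mM citrate as positive control.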

INDY [2] = target: T1, INDY; assay: 14C-citrate uptake in HEK293 cells overexpressing recombinant human INDY (NaCT); type: cell-based; design: expressed in transfected cells; host or cells: HEK293
In short: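 HEK293 cells overexpressing human NaCT, 50,000/well, preincubated 5-30 min at 37 °C with compound in pH 6.5 Na+ buffer. 14C-citrate ([…]) uptake then ran 20-90 min at 37 °C, followed by ice-cold washes, NaOH lysis and scintillation counting. 10 mM citrate served as positive control.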

T1 sequence (Q86YT5 whole entry): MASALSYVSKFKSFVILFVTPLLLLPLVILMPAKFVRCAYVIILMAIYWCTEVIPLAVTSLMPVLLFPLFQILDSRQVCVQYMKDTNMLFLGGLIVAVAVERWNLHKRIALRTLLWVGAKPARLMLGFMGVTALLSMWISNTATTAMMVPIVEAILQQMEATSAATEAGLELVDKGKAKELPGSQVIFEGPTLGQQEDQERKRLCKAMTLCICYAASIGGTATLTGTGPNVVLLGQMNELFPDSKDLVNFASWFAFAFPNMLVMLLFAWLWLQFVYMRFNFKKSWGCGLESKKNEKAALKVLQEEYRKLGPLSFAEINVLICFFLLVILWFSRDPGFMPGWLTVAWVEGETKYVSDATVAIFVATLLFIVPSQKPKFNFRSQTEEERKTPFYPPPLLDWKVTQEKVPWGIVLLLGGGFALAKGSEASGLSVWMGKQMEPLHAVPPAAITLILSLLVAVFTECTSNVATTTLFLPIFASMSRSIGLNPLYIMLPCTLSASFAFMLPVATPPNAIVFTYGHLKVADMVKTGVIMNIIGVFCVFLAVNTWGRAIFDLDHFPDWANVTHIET

Compound | IC50 (INDY [1]) | IC50 (INDY [2])
CC(C)(C)c1ccc(S(=O)(=O)N2CCC(C(=O)NCc3ccccc3F)CC2)cc1 [Example 12, 1-(4-tert-butylbenzenesulfonyl)-N-[(2-fluorophenyl)methyl]piperidine-4-carboxamide] | 1000 nM | 200 nM
O=C(NCc1ccccc1F)C1CCN(S(=O)(=O)c2ccc(C(F)(F)F)cc2)CC1 [Example 25, N-[(2-fluorophenyl)methyl]-1-[4-(trifluoromethyl)benzenesulfonyl]piperidine-4-carboxamide] | 300 nM | > 20000 nM
O=C(NCc1ccccn1)C1CCN(S(=O)(=O)c2cc(Cl)cc(Cl)c2)CC1 [Example 55, 1-(3,5-dichlorobenzenesulfonyl)-N-[(pyridin-2-yl)methyl]piperidine-4-carboxamide] | 400 nM | 800 nM
O=C(NCc1ccccn1)C1CCN(S(=O)(=O)c2ccc(C(F)(F)F)cc2)CC1 [Example 57, N-[(pyridin-2-yl)methyl]-1-[4-(trifluoromethyl)benzenesulfonyl]piperidine-4-carboxamide] | 2500 nM | 4100 nM
O=C(NCc1ccccn1)C1CCN(S(=O)(=O)c2ccc(S(F)(F)(F)(F)F)cc2)CC1 [Example 86, 1-[4-(pentafluoro-lambda6-sulfanyl)benzenesulfonyl]-N-[(pyridin-2-yl)methyl]pipendine-4-carboxamide] | 400 nM | 1100 nM
O=C(NCc1ccccc1CO)C1CCN(S(=O)(=O)c2cc(Cl)cc(Cl)c2)CC1 [Example 87, 1-(3,5-dichlorobenzenesulfonyl)-N-{[2-(hydroxymethyl)phenyl]methyl}piperidine-4-carboxamide] | 200 nM | 600 nM

The remaining lines, values ahead:

IC50 (INDY [1]) | IC50 (INDY [2]) | Compound
2000 nM | 2900 nM | O=C(NCc1ccccc1F)C1CCN(S(=O)(=O)/C=C/c2ccccc2)CC1 [Example 5]
100 nM | 100 nM | O=C(NCc1ccccc1F)C1CCN(S(=O)(=O)c2cc(Cl)cc(Cl)c2)CC1 [Example 44, 1-(3,5-dichlorobenzenesulfonyl)-N-[(2-fluorophenyl)methyl]piperidine-4-carboxamide]
7000 nM | 4400 nM | COc1ccccc1CNC(=O)C1CN(S(=O)(=O)c2ccc(C(C)(C)C)cc2)C1 [Example 50, 1-(4-tert-butylbenzenesulfonyl)-N-[(2-methoxyphenyl)methyl]azetidine-3-carboxamide]
100 nM | 300 nM | O=C(NCc1ccccn1)C1CCN(S(=O)(=O)c2cc(Cl)cc(C3CC3)c2)CC1 [Example 101, 1-(3-chloro-5-cyclopropylbenzenesulfonyl)-N-[(pyridin-2-yl)methyl]piperidine-4-carboxamide]
